In US11851449B2, “Heterocyclic amide compounds having an RORvt inhibitory action” (TAKEDA PHARMACEUTICAL COMPANY LIMITED, priority 2013, dated 2023):
Counter-ions that a name gives are not always drawn.

Experiments:
[1] = molecular target: T1, RORγt (Homo sapiens, UniProt P51449); assay: RORγt binding test (TR-FRET, fluorescent-labeled cholesterol); conditions: read-out: binding inhibitory rate (%) of fluorescent-labeled cholesterol to RORγt at test compound 1 μM
T1 sequence (P51449 1-497 isoform P51449-2): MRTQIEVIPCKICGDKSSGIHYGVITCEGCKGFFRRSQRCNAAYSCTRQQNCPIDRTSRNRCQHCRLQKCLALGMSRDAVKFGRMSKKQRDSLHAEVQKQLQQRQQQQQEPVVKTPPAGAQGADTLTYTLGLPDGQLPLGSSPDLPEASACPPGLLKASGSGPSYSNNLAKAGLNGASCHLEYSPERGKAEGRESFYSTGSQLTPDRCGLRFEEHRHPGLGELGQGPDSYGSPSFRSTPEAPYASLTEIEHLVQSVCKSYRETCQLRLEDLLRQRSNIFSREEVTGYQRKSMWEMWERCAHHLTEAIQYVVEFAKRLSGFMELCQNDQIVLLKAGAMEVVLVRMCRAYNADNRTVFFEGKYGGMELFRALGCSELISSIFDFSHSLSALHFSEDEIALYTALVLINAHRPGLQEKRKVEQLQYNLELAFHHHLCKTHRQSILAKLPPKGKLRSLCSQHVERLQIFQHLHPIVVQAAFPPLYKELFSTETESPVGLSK
Procedure, shortened: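 His-tagged RORγt and BODIPY-cholesterol were incubated with compound for 20 min at room temperature in Tris-HCl pH 7.5, 100 mM NaCl, 1 mM DTT and 0.1% BSA. Terbium anti-His antibody was then added for a further 20 min.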

[2] = molecular target: T1, RORγt; assay: Cofactor recruitment test (Alpha Screen, biotinylated SRC-1 peptide); format: biochemical; conditions: read-out: signal value inhibitory rate (%) at test compound 1 μM
Protocol: Cofactor Recruitment Test
Cofactor recruitment test was performed by Alpha Screen (Histidine Detection Kit, PerkinElmer) method. First, a test compound was diluted with an assay buffer (50 mM Tris-HCl (pH 7.5), 50 mM KCl, 1 mM DTT, 0.1% BSA) and added to a 384 well plate by 5 μL. […] The mixture was stood in a dark place for 1 hr, and the signal value was measured by Envision (PerkinElmer).

[3] = molecular target: T1, RORγt; assay: Jurkat reporter test (human IL-17 ROR response element luciferase reporter); format: cell-based; conditions: Jurkat, read-out: luminescence level inhibitory rate (%) at test compound 3 μM
Procedure, shortened: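 Jurkat cells were electroporated (1350 V, 10 ms, 3 pulses) with reporter constructs, then cultured overnight with compound in RPMI containing 10% lipid-reduced FCS, 10 mM HEPES pH 7.5 and 5 μM lovastatin. Luciferase was quantified by Bright-Glo luminescence after 10 min at room temperature.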

Row | SMILES | inhibition at 1 µM [1] [%] | inhibition at 1 µM [2] [%] | inhibition at 3 µM [3] [%]
1 | CCC(=O)N[C@@H](C(=O)Nc1ccc([Si](C)(C)C)c(F)c1)c1ccc(COC)cc1 [Example 79, N-((1R)-2-((3-fluoro-4-(trimethylsilyl)phenyl)amino)-1-(4-(methoxymethyl)phenyl)-2-oxoethyl)propanamide] | 103 | 93 | 98.4
2 | COCc1ccc([C@@H](NC(=O)CCS(C)(=O)=O)C(=O)Nc2ccc([Si](C)(C)C)c(F)c2)cc1 [Example 80, N-((1R)-2-((3-fluoro-4-(trimethylsilyl)phenyl)amino)-1-(4-(methoxymethyl)phenyl)-2-oxoethyl)-3-(methylsulfonyl)propanamide] | 102 | 93.8 | 100
3 | COCc1ccc([C@@H](NC(=O)CS(C)(=O)=O)C(=O)Nc2ccc([Si](C)(C)C)c(F)c2)cc1 [Example 81, (2R)—N-(3-fluoro-4-(trimethylsilyl)phenyl)-2-(4-(methoxymethyl)phenyl)-2-(((methylsulfonyl)acetyl)amino)acetamide] | 103 | 94.9 | 98.3
4 | COCc1ccc([C@@H](NC(=O)c2cc(O)no2)C(=O)Nc2cc(F)c([Si](C)(C)C)c(F)c2)cc1 [Example 82, N-((1R)-2-((3,5-difluoro-4-(trimethylsilyl)phenyl)amino)-1-(4-(methoxymethyl)phenyl)-2-oxoethyl)-3-hydroxy-1,2-oxazole-5-carboxamide] | 103 | 96.8 | 97
5 | COc1ccc([C@@H](NC(=O)c2cc(O)no2)C(=O)Nc2ccc([Si](C)(C)C)c(F)c2)cc1 [Example 83, N-((1R)-2-((3-fluoro-4-(trimethylsilyl)phenyl)amino)-1-(4-methoxyphenyl)-2-oxoethyl)-3-hydroxy-1,2-oxazole-5-carboxamide] | 100 | 86.5 | 63.2
6 | COCc1ccc([C@@H](NC(=O)C2CC2(F)F)C(=O)Nc2ccc([Si](C)(C)C)c(F)c2)cc1 (stereo partly drawn) [Example 84, 2,2-difluoro-N-((1R)-2-((3-fluoro-4-(trimethylsilyl)phenyl)amino)-1-(4-(methoxymethyl)phenyl)-2-oxoethyl)cyclopropanecarboxamide] | 101 | 94.4 | 100
7 | COCc1ccc([C@@H](NC(=O)CO)C(=O)Nc2ccc([Si](C)(C)C)c(F)c2)cc1 [Example 85, (2R)—N-(3-fluoro-4-(trimethylsilyl)phenyl)-2-(glycoloylamino)-2-(4-(methoxymethyl)phenyl)acetamide] | 103 | 90.1 | 99
8 | COCc1ccc([C@@H](NC(=O)CNC(C)=O)C(=O)Nc2ccc([Si](C)(C)C)c(F)c2)cc1 [Example 86, N^2-acetyl-N-((1R)-2-((3-fluoro-4-(trimethylsilyl)phenyl)amino)-1-(4-(methoxymethyl)phenyl)-2-oxoethyl)glycinamide] | 102 | 95.2 | 99.1
9 | COCc1ccc([C@@H](NC(=O)C2CCN(C(C)=O)CC2)C(=O)Nc2ccc([Si](C)(C)C)c(F)c2)cc1 [Example 87, 1-acetyl-N-((1R)-2-((3-fluoro-4-(trimethylsilyl)phenyl)amino)-1-(4-(methoxymethyl)phenyl)-2-oxoethyl)piperidine-4-carboxamide] | 102 | 83.9 | 98.2
10 | COCc1ccc([C@@H](NC(=O)C2CCOCC2)C(=O)Nc2ccc([Si](C)(C)C)c(F)c2)cc1 [Example 88, N-((1R)-2-((3-fluoro-4-(trimethylsilyl)phenyl)amino)-1-(4-(methoxymethyl)phenyl)-2-oxoethyl)tetrahydro-2H-pyran-4-carboxamide] | 103 | 90.7 | 98.1
11 | COCc1ccc([C@@H](NC(=O)CC2CCOCC2)C(=O)Nc2ccc([Si](C)(C)C)c(F)c2)cc1 [Example 89, (2R)—N-(3-fluoro-4-(trimethylsilyl)phenyl)-2-(4-(methoxymethyl)phenyl)-2-((tetrahydro-2H-pyran-4-ylacetyl)amino)acetamide] | 103 | 95.5 | 101
12 | CCNC(=O)N[C@@H](C(=O)Nc1ccc([Si](C)(C)C)c(F)c1)c1ccc(COC)cc1 [Example 90, (2R)-2-((ethylcarbamoyl)amino)-N-(3-fluoro-4-(trimethylsilyl)phenyl)-2-(4-(methoxymethyl)phenyl)acetamide] | 102 | 96 | 101
13 | COCc1ccc([C@@H](NC(=O)C2CC(F)(F)C2)C(=O)Nc2ccc([Si](C)(C)C)c(F)c2)cc1 [Example 91, 3,3-difluoro-N-((1R)-2-((3-fluoro-4-(trimethylsilyl)phenyl)amino)-1-(4-(methoxymethyl)phenyl)-2-oxoethyl)cyclobutanecarboxamide] | 102 | 94.6 | 98
14 | COCc1ccc([C@@H](NC(=O)CCC(F)F)C(=O)Nc2ccc([Si](C)(C)C)c(F)c2)cc1 [Example 92, 4,4-difluoro-N-((1R)-2-((3-fluoro-4-(trimethylsilyl)phenyl)amino)-1-(4-(methoxymethyl)phenyl)-2-oxoethyl)butanamide] | 102 | 92.8 | 98.8
15 | COCc1ccc([C@@H](NC(=O)CC(F)(F)F)C(=O)Nc2ccc([Si](C)(C)C)c(F)c2)cc1 [Example 93, 3,3,3-trifluoro-N-((1R)-2-((3-fluoro-4-(trimethylsilyl)phenyl)amino)-1-(4-(methoxymethyl)phenyl)-2-oxoethyl)propanamide] | 102 | 92.3 | 99.1
16 | COCc1ccc([C@@H](NC(=O)CCC(F)(F)F)C(=O)Nc2ccc([Si](C)(C)C)c(F)c2)cc1 [Example 94, 4,4,4-trifluoro-N-((1R)-2-((3-fluoro-4-(trimethylsilyl)phenyl)amino)-1-(4-(methoxymethyl)phenyl)-2-oxoethyl)butanamide] | 102 | 91.5 | 101
17 | COCc1ccc([C@@H](NC(=O)N2CC[C@@H](F)C2)C(=O)Nc2ccc([Si](C)(C)C)c(F)c2)cc1 [Example 95, (3R)-3-fluoro-N-((1R)-2-((3-fluoro-4-(trimethylsilyl)phenyl)amino)-1-(4-(methoxymethyl)phenyl)-2-oxoethyl)pyrrolidine-1-carboxamide] | 99.3 | 93.8 | 99.8
18 | COCc1ccc([C@@H](NC(=O)N2CC[C@H](F)C2)C(=O)Nc2ccc([Si](C)(C)C)c(F)c2)cc1 [Example 96, (3S)-3-fluoro-N-((1R)-2-((3-fluoro-4-(trimethylsilyl)phenyl)amino)-1-(4-(methoxymethyl)phenyl)-2-oxoethyl)pyrrolidine-1-carboxamide] | 98.6 | 91.2 | 99.5
19 | COCc1ccc([C@@H](NC(=O)CN2CCOCC2)C(=O)Nc2ccc([Si](C)(C)C)c(F)c2)cc1 [Example 97, (2R)—N-(3-fluoro-4-(trimethylsilyl)phenyl)-2-(4-(methoxymethyl)phenyl)-2-((morpholin-4-ylacetyl)amino)acetamide hydrochloride] | 102 | 93.6 | 98.3
20 | COCc1ccc([C@@H](NC(=O)c2cc(O)no2)C(=O)Nc2cc(F)c([Si](C)(C)C)cc2F)cc1 [Example 98, N-((1R)-2-((2,5-difluoro-4-(trimethylsilyl)phenyl)amino)-1-(4-(methoxymethyl)phenyl)-2-oxoethyl)-3-hydroxy-1,2-oxazole-5-carboxamide] | 102 | 95.8 | 99.2
21 | COc1ccc([C@@H](NC(=O)c2cc(O)no2)C(=O)Nc2cc(F)c([Si](C)(C)C)c(F)c2)cc1 [Example 99, N-((1R)-2-((3,5-difluoro-4-(trimethylsilyl)phenyl)amino)-1-(4-methoxyphenyl)-2-oxoethyl)-3-hydroxy-1,2-oxazole-5-carboxamide] | 102 | 94.3 | 99.9
